Structures can show the parent of a compound that is named as a salt.
Legend:
Sarcoma 180 [1] = experiment: Test of Antitumor Effect to Sarcoma 180 by Oral Administration; assay type: in vivo, ICR female mice
Experimental: To the control group, a physiological saline was similarly administered. The dose of the compound was 100 mg per Kg of the body weight. The diameter D (mm) of the tumor was measured, and the average value and the number N of the living mice were determined to obtain results shown in Table 4.

[2] = Test of Acute Toxicity by Oral Administration; assay type: in vivo, ddY male mice; details: mice, after 7 days
Experimental: A solution or suspension of the compound in a physiological saline was orally administered to one group of three ddY male mice, and after 7 days, the estimated LD50 value was determined.

[3] = test system: delayed hypersensitivity induced by picryl chloride; experiment: Test of Reinforcement of Delayed Hypersensitivity (picryl chloride, mouse ear thickness); assay type: in vivo, ICR male mice; details: 50 mg/Kg oral, simultaneously with sensitization; 24 hours after challenge; * P<0.05, ** P<0.01
Excerpt: Various test systems using animals have been proposed for determining the immunopotentiative action. Results of the test of reinforcement of the delayed hypersensitivity, which is a typical test among these tests, will now be described.
This system was used for the test of reinforcement of the delayed hypersensitivity.
One group of eight ICR male mice, each having a body weight of about 30 g, was used for the test.
Sensitization was effected by coating a 7% solution of picryl chloride in a 4/1 mixture of olive oil and acetone on the shaved abdomen of the mouse.
Simultaneously with sensitization, a solution or suspension of the compound of the present invention in a 0.2% solution of carboxymethyl cellulose in a physiological saline was orally administered to the mouse at a dose of 50 mg per Kg of the body weight. To the control group, a 0.2% carboxymethyl cellulose solution in a physiological saline was similarly administered.
The delayed hypersensitivity was challenged 7 days after sensitization by gripping the ear of the mouse by a forceps wrapped with a felt impregnated with a 1% solution of picryl chloride in olive oil and coating the ear with the solution. The thickness of the ear was measured before challenging and 24 hours after challenging and the ratio of increase of the thickness (average value of both the ears in eight mice±standard deviation) was obtained as shown in Table 1.
For comparison, the test was similarly carried out by using Levamisole hydrochloride, and the obtained results are shown in Table 1. F.t tests were carried out. The group in which the test result was significant at a level of P<0.05 was marked by *, and the group in which the test result was significant at a level of P<0.01 was marked by **.

EL-4 leukemic cells = experiment: In-Vitro Test of Inhibition of Growth of Cancer Cell by Macrophage (3H-thymidine take-in); assay type: cell-based, C57 BL/6J mouse (EL-4 cells); ddY female mice (macrophages); details: 8 mg/Kg intraperitoneal; for inhibition of take-in of 3H-thymidine by EL-4 cells / macrophage activation (in words): hydrochloride
Experimental: The results of the test of the action of the effective ingredient of the present invention on the macrophage will now be described with reference to the following Test 3. More specifically, the separated macrophage and EL-4 leukemic cell were mixed and cultured, and ^3 H-thymidine was added to a culture medium and the quantity of ^3 H-thymidine incorporated into the EL-4 cell was determined to examine the activity of the macrophage. When the macrophage is activated by administration of the effective ingredient of the present invention, inhibition of the growth of EL-4 cell, that is, phagocytosis of the cancer cell by the macrophage, is observed. Accordingly, if the take-in amount of ^3 H-thymidine is measured and this amount is reduced, it is confirmed that the macrophage has been activated. Test Procedures: […] The dose was 8 mg per Kg of the body weight. To the control group, a physiological saline was similarly administered. After passage of 4 days, exuded abdominal cells were collected and deposited on a plastic Petri dish to collect macrophages. […] Then, 0.1 μCi of ^3 H-thymidine was added and culturing was further conducted for 16 hours. Cells were collected on a filter paper from the culture medium and the amount of ^3 H-thymidine incorporated in was determined by a liquid scintillation counter.

[4] = test system: adjuvant arthritis caused by Mycobacterium tuberculosis adjuvant; experiment: Adjuvant Arthritis Test; assay type: in vivo, SD male rats; details: 5 mg/Kg subcutaneous, 9 times, left hind leg, * P<0.05, ** P<0.01
Experimental: The adjuvant arthritis in rats caused by injection of a Mycobacterium tuberculosis adjuvant is often utilized for a model test of chronic rheumatoid arthritis in men.
The mechanism of manifestation of this disease has not completely been elucidated, but it is known that the cellular immunity takes an important role. The immunopotentiative action of the compound of the present invention was tested according to this known adjuvant arthritis test.
A group of ten 9-weeks-old SD male rats were used for the test. In 0.1 ml of fluid paraffin, 0.4 mg of dry dead cells of Mycobacterium tuberculosis were suspended, and the suspension was injected under the heel skin of the right hind leg. The compound of the present invention was subcutaneously administered 9 times as a whole before and after injection of the adjuvant. The test compound was dissolved in a physiological saline and administered at a dose of 5 mg per Kg of the body weight. The swelling volume of the left hind leg as measured during the period of from the day of injection to the day of completion of the test, and the swelling ratio was calculated. For comparison, the test was similarly conducted by using Levamisole hydrochloride. F.t tests were carried out on the obtained test results. The group in which the test result was significant at a level of P<0.05 was marked by *, and the group in which the test result was significant at a level of P<0.01 was marked by **.

Sarcoma 180 [5] = experiment: Test of Antitumor Effect to Sarcoma 180 by Subcutaneous Administration; assay type: in vivo, ICR female mice; details: 20 mg/Kg subcutaneous
Experimental: To the control group, a physiological saline was similarly administered. […] The diameter D (mm) of the tumor was measured, and the average value and the number N of the living mice were determined to obtain results shown in Table 4.

SMILES: c1ccc([C@H]2CN3CCSC3=N2)cc1 [Levamisole hydrochloride, reference compound]
- D: average diameter (mm) of tumor, 2 weeks (Sarcoma 180 [1]; 100 mg/Kg oral once a day, 10 days, 2 weeks): 8.1 mm
- D: average diameter (mm) of tumor, 4 weeks (Sarcoma 180 [1]; 100 mg/Kg oral once a day, 10 days, 4 weeks): 16.8 mm
- D: average diameter (mm) of tumor, 6 weeks (Sarcoma 180 [1]; 100 mg/Kg oral once a day, 10 days, 6 weeks): 23.1 mm
- D: average diameter (mm) of tumor, 8 weeks (Sarcoma 180 [1]; 100 mg/Kg oral once a day, 10 days, 8 weeks): 27.4 mm
- D: average diameter (mm) of tumor, 10 weeks (Sarcoma 180 [1]; 100 mg/Kg oral once a day, 10 days, 10 weeks): 25.5 mm
- antitumor action (in words) (Sarcoma 180 [1]; 100 mg/Kg oral, repeatedly): no substantial antitumor action was observed
- N: number of living mice, 0 weeks (Sarcoma 180 [1]; 100 mg/Kg oral, 0 weeks, group of 6): 6
- N: number of living mice, 2 weeks (Sarcoma 180 [1]; 100 mg/Kg oral, 2 weeks, group of 6): 6
- N: number of living mice, 4 weeks (Sarcoma 180 [1]; 100 mg/Kg oral, 4 weeks, group of 6): 6
- N: number of living mice, 6 weeks (Sarcoma 180 [1]; 100 mg/Kg oral, 6 weeks, group of 6): 6
- N: number of living mice, 8 weeks (Sarcoma 180 [1]; 100 mg/Kg oral, 8 weeks, group of 6): 6
- N: number of living mice, 10 weeks (Sarcoma 180 [1]; 100 mg/Kg oral, 10 weeks, group of 6): 5
- estimated LD50 value [2]: 150 to 200 mg/kg
- Ratio of Increase of Ear Thickness (average value ± standard variation, %) [3]: 33.9 ± 3.0%
- Take-in Ratio (average value, %) (EL-4 leukemic cells; macrophages collected after 4 days, 3H-thymidine incorporated into EL-4 cells): 53.3%
- inhibition of take-in of 3H-thymidine by EL-4 cells / macrophage activation (in words) (EL-4 leukemic cells): does not exhibit such action
- inhibition of take-in of 3H-thymidine by EL-4 cells / macrophage activation (in words) (EL-4 leukemic cells; listed as Levamisole): hardly exhibits such action
- Swelling Ratio (average value ± standard variation, %), 15 days ([4]; 15 days): 54.6 ± 11.3%
- Swelling Ratio (average value ± standard variation, %), 18 days ([4]; 18 days): 61.7 ± 9.8%
- Swelling Ratio (average value ± standard variation, %), 21 days ([4]; 21 days): 73.3 ± 14.6%
- antitumor activity (in words) (Sarcoma 180 [5]): no substantial antitumor activity
- N: number of living mice, 0 weeks (Sarcoma 180 [5]; 0 weeks, group of 6): 6
- D: average diameter (mm) of tumor, 2 weeks (Sarcoma 180 [5]; 2 weeks): 3.6 mm
- N: number of living mice, 2 weeks (Sarcoma 180 [5]; 2 weeks, group of 6): 6
- D: average diameter (mm) of tumor, 4 weeks (Sarcoma 180 [5]; 4 weeks): 14.1 mm
- N: number of living mice, 4 weeks (Sarcoma 180 [5]; 4 weeks, group of 6): 6
- D: average diameter (mm) of tumor, 6 weeks (Sarcoma 180 [5]; 6 weeks): 22.2 mm
- N: number of living mice, 6 weeks (Sarcoma 180 [5]; 6 weeks, group of 6): 6
- D: average diameter (mm) of tumor, 8 weeks (Sarcoma 180 [5]; 8 weeks): 26.8 mm
- N: number of living mice, 8 weeks (Sarcoma 180 [5]; 8 weeks, group of 6): 3
- D: average diameter (mm) of tumor, 10 weeks (Sarcoma 180 [5]; 10 weeks): 23.8 mm
- N: number of living mice, 10 weeks (Sarcoma 180 [5]; 10 weeks, group of 6): 2

Reference: patent US4476128A, “2-Substituted thiazolyl-piperazine compounds, process for preparation thereof and utilizations thereof _” (Mitsuitoatsu Chemicals, Inc., priority 1980, dated 1984)
